Test system: KRAS-mutant PDC tumor spheroid with HUVEC/MSC, viability
Assay: Anticancer human tumor 327498-153-R-J2-PDC patient-derived uterine carcinosarcoma cell line growth inhibition [KRAS2]
Conditions: for IC50: curve of first compound; for viability, T/C: stronger effect = lower value
Outline: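 Combination screen of spheroid viability in tumor-cell co-cultures with endothelial (HUVEC) and mesenchymal stem cell stroma. Each agent was tested in half-log dilutions, topping at clinical Cmax or at 10 microM without a known Cmax.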

[1] = second compound 0.0316 µM, first compound 0.0316 µM
[2] = second compound 0.0316 µM, first compound 0.1 µM
[3] = second compound 0.1 µM, first compound 0.0316 µM
[4] = second compound 0.1 µM, first compound 0.1 µM
[5] = second compound 0.316 µM, first compound 0.0316 µM
[6] = second compound 0.316 µM, first compound 0.1 µM
[7] = second compound 1 µM, first compound 0.0316 µM
[8] = second compound 1 µM, first compound 0.1 µM
[9] = second compound 3.16 µM, first compound 0.0316 µM
[10] = second compound 3.16 µM, first compound 0.1 µM
[11] = second compound 0.0316 µM, first compound 0.316 µM
[12] = second compound 0.0316 µM, first compound 1 µM
[13] = second compound 0.0316 µM, first compound 3.16 µM
[14] = second compound 0.0316 µM, first compound 10 µM
[15] = second compound 0.1 µM, first compound 0.316 µM
[16] = second compound 0.1 µM, first compound 1 µM
[17] = second compound 0.1 µM, first compound 3.16 µM
[18] = second compound 0.1 µM, first compound 10 µM
[19] = second compound 0.316 µM, first compound 0.316 µM
[20] = second compound 0.316 µM, first compound 1 µM
[21] = second compound 0.316 µM, first compound 3.16 µM
[22] = second compound 0.316 µM, first compound 10 µM
[23] = second compound 1 µM, first compound 0.316 µM
[24] = second compound 1 µM, first compound 1 µM
[25] = second compound 1 µM, first compound 3.16 µM
[26] = second compound 1 µM, first compound 10 µM
[27] = second compound 3.16 µM, first compound 0.316 µM
[28] = second compound 3.16 µM, first compound 1 µM
[29] = second compound 3.16 µM, first compound 3.16 µM
[30] = second compound 3.16 µM, first compound 10 µM
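Further: spheroids exposed to agents for seven days before reading.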
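Wherever viability, T/C is given: 100% = DMSO vehicle wells so lower means fewer viable cells.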

Compound: CC(C)n1nc(-c2ccc3oc(N)nc3c2)c2c(N)ncnc21 + C=CC(=O)N1CCN(c2nc(OCC3CCCN3C)nc3c2CCN(c2cccc4cccc(C)c24)C3)CC1CC#N
- IC50 (second compound 0.0316 µM): 1.03 nM
- IC50 (second compound 0.1 µM): 0.342 nM
- IC50 (second compound 0.316 µM): 0.586 nM
- IC50 (second compound 1 µM): < 0.316 nM
- IC50 (second compound 3.16 µM): < 0.316 nM
- viability, T/C (second compound 0.0316 µM, first compound 0.000316 µM): 62.7%
- viability, T/C (second compound 0.0316 µM, first compound 0.001 µM): 49.2%
- viability, T/C (second compound 0.0316 µM, first compound 0.00316 µM): 35.1%
- viability, T/C (second compound 0.0316 µM, first compound 0.01 µM): 17.8%
- viability, T/C [1]: 8.35%
- viability, T/C [2]: 5.42%
- viability, T/C (second compound 0.1 µM, first compound 0.000316 µM): 51.6%
- viability, T/C (second compound 0.1 µM, first compound 0.001 µM): 35.8%
- viability, T/C (second compound 0.1 µM, first compound 0.00316 µM): 28.4%
- viability, T/C (second compound 0.1 µM, first compound 0.01 µM): 17.2%
- viability, T/C [3]: 8.1%
- viability, T/C [4]: 4.85%
- viability, T/C (second compound 0.316 µM, first compound 0.000316 µM): 57.3%
- viability, T/C (second compound 0.316 µM, first compound 0.001 µM): 43.7%
- viability, T/C (second compound 0.316 µM, first compound 0.00316 µM): 28.8%
- viability, T/C (second compound 0.316 µM, first compound 0.01 µM): 15.8%
- viability, T/C [5]: 9.55%
- viability, T/C [6]: 4.33%
- viability, T/C (second compound 1 µM, first compound 0.000316 µM): 46.5%
- viability, T/C (second compound 1 µM, first compound 0.001 µM): 33%
- viability, T/C (second compound 1 µM, first compound 0.00316 µM): 22.6%
- viability, T/C (second compound 1 µM, first compound 0.01 µM): 13.2%
- viability, T/C [7]: 4.83%
- viability, T/C [8]: 3.23%
- viability, T/C (second compound 3.16 µM, first compound 0.000316 µM): 0.28%
- viability, T/C (second compound 3.16 µM, first compound 0.001 µM): 0.25%
- viability, T/C (second compound 3.16 µM, first compound 0.00316 µM): 0.22%
- viability, T/C (second compound 3.16 µM, first compound 0.01 µM): 0.14%
- viability, T/C [9]: 0.14%
- viability, T/C [10]: 0.21%

Compound: CC1(C)CCC(CN2CCN(c3ccc(C(=O)NS(=O)(=O)c4ccc(NCC5CCOCC5)c([N+](=O)[O-])c4)c(Oc4cnc5[nH]ccc5c4)c3)CC2)=C(c2ccc(Cl)cc2)C1 + C=CC(=O)N1CCN(c2nc(OCC3CCCN3C)nc3c2CCN(c2cccc4cccc(C)c24)C3)CC1CC#N
- IC50 (second compound 0.0316 µM): 1990 nM
- IC50 (second compound 0.1 µM): 1650 nM
- IC50 (second compound 0.316 µM): 1100 nM
- IC50 (second compound 1 µM): < 31.6 nM
- IC50 (second compound 3.16 µM): < 31.6 nM
- viability, T/C [1]: 70.1%
- viability, T/C [2]: 66.6%
- viability, T/C [11]: 72.7%
- viability, T/C [12]: 63.8%
- viability, T/C [13]: 40.2%
- viability, T/C [14]: 8.7%
- viability, T/C [3]: 56.8%
- viability, T/C [4]: 59.2%
- viability, T/C [15]: 52%
- viability, T/C [16]: 53%
- viability, T/C [17]: 45.9%
- viability, T/C [18]: 12.1%
- viability, T/C [5]: 48.7%
- viability, T/C [6]: 49%
- viability, T/C [19]: 58.4%
- viability, T/C [20]: 52.2%
- viability, T/C [21]: 27.3%
- viability, T/C [22]: 1.57%
- viability, T/C [7]: 44.5%
- viability, T/C [8]: 44.1%
- viability, T/C [23]: 44.9%
- viability, T/C [24]: 48%
- viability, T/C [25]: 18.5%
- viability, T/C [26]: 0.31%
- viability, T/C [9]: 1.15%
- viability, T/C [10]: 1.18%
- viability, T/C [27]: 0.54%
- viability, T/C [28]: 0.45%
- viability, T/C [29]: 1.03%
- viability, T/C [30]: 0.39%

Compound: COc1cc(Nc2ncc3c(n2)-c2ccc(Cl)cc2C(c2c(F)cccc2OC)=NC3)ccc1C(=O)O + C=CC(=O)N1CCN(c2nc(OCC3CCCN3C)nc3c2CCN(c2cccc4cccc(C)c24)C3)CC1CC#N
- IC50 (second compound 0.0316 µM): < 31.6 nM
- IC50 (second compound 0.1 µM): < 31.6 nM
- IC50 (second compound 0.316 µM): < 31.6 nM
- IC50 (second compound 1 µM): < 31.6 nM
- IC50 (second compound 3.16 µM): < 31.6 nM
- viability, T/C [1]: 13.7%
- viability, T/C [2]: 11.9%
- viability, T/C [11]: 11.5%
- viability, T/C [12]: 9.41%
- viability, T/C [13]: 11.3%
- viability, T/C [14]: 10.4%
- viability, T/C [3]: 12.7%
- viability, T/C [4]: 11.3%
- viability, T/C [15]: 10.2%
- viability, T/C [16]: 9.02%
- viability, T/C [17]: 12.1%
- viability, T/C [18]: 10.4%
- viability, T/C [5]: 10.2%
- viability, T/C [6]: 8.78%
- viability, T/C [19]: 8.53%
- viability, T/C [20]: 8.2%
- viability, T/C [21]: 9.27%
- viability, T/C [22]: 9.77%
- viability, T/C [7]: 10.3%
- viability, T/C [8]: 8.65%
- viability, T/C [23]: 7.42%
- viability, T/C [24]: 6.83%
- viability, T/C [25]: 7.63%
- viability, T/C [26]: 6.7%
- viability, T/C [9]: 2.49%
- viability, T/C [10]: 2.27%
- viability, T/C [27]: 1.67%
- viability, T/C [28]: 0.13%
- viability, T/C [29]: 0.95%
- viability, T/C [30]: 0.23%

Compound: COc1cc2nccc(Oc3ccc(NC(=O)C4(C(=O)Nc5ccc(F)cc5)CC4)cc3)c2cc1OC + C=CC(=O)N1CCN(c2nc(OCC3CCCN3C)nc3c2CCN(c2cccc4cccc(C)c24)C3)CC1CC#N
- IC50 (second compound 0.0316 µM): 1290 nM
- IC50 (second compound 0.1 µM): < 31.6 nM
- IC50 (second compound 0.316 µM): < 31.6 nM
- IC50 (second compound 1 µM): < 31.6 nM
- IC50 (second compound 3.16 µM): < 31.6 nM
- viability, T/C [1]: 60.9%
- viability, T/C [2]: 55.4%
- viability, T/C [11]: 55.6%
- viability, T/C [12]: 63.9%
- viability, T/C [13]: 18.4%
- viability, T/C [14]: 0.28%
- viability, T/C [3]: 48.4%
- viability, T/C [4]: 50%
- viability, T/C [15]: 50.4%
- viability, T/C [16]: 47.8%
- viability, T/C [17]: 17.3%
- viability, T/C [18]: 0.84%
- viability, T/C [5]: 45%
- viability, T/C [6]: 48.5%
- viability, T/C [19]: 52.1%
- viability, T/C [20]: 45%
- viability, T/C [21]: 15%
- viability, T/C [22]: 0.62%
- viability, T/C [7]: 44.1%
- viability, T/C [8]: 40.3%
- viability, T/C [23]: 39.3%
- viability, T/C [24]: 43.3%
- viability, T/C [25]: 11.1%
- viability, T/C [26]: 0.15%
- viability, T/C [9]: 0.22%
- viability, T/C [10]: 0.17%
- viability, T/C [27]: 0.17%
- viability, T/C [28]: 0.16%
- viability, T/C [29]: 0.13%
- viability, T/C [30]: 0.24%

Source: PubChem BioAssay AID1963867 (Molecular Pharmacology Branch, DTP, NCI, 2024)
